One data set relates to DNA topoisomerase I. As to conditions: background statement; cited from earlier work.
In data set [1] the test system is non-small cell lung carcinoma. As to the kind of experiment: clinical response, patient with metastatic non-small cell lung carcinoma, tumor size by CAT scan. It counts as in vivo, human. The settings on record: for response to pretreatment: pretreatment with VP-16 (etoposide) and cisplatin, same patient before topotecan. The protocol:
One human patient with metastatic non-small cell lung carcinoma, who was refractory to pretreatment with VP-16 (etoposide) and cisplatin, received a course of therapy comprising intravenous administration of 1.5 mg of topotecan/m^2 of body surface area per day for five consecutive days. This course of therapy was repeated at least five more times at twenty-one day intervals (from the date of initiation of therapy) for a total of at least […] treatments. Tumor size regression was evaluated by CAT (computerized axial tomography) scan.

Data set [2] concerns non-small cell lung carcinoma. Put plainly: clinical response, second patient with non-small cell lung carcinoma. The format is in vivo, human.
Data set [3] can be described thus: stability of diluted topotecan solutions in plastic bags at room temperature (percentage of initial topotecan remaining). The format is physicochemical. The settings on record: 0 hrs. The protocol: Stability--Shelf life surveillance of the intact vials is ongoing. Because the single-use lyophilized dosage form contains no antibacterial preservatives, it is advised that the reconstituted solution be discarded eight hours after initial entry into the vial. Further dilutions of the reconstituted solution to concentrations of 0.02 mg/ml and 0.1 mg.ml in 5% Dextrose Injection, USP, ("D5W") or 0.9% Sodium Chloride Injection, USP, ("NS") in plastic bags stored at room temperature yielded the following stability results:
PERCENTAGE OF INITIAL TOPOTECAN REMAINING IN SOLUTION

The conditions of data set [4]: qualitative statement; cited from earlier work.

With `CC[C@@]1(O)C(=O)OCc2c1cc1n(c2=O)Cc2cc3ccccc3nc2-1` [camptothecin, reference compound], in the data set with DNA topoisomerase I, the “inhibition of topoisomerase I” value is recorded as “known to inhibit topoisomerase I”.
For the compound `N.N.[Cl][Pt][Cl]` [cisplatin], in data set [1], the response to pretreatment entry was “refractory”.
The same measure, in the same setting: the same measure for `COc1cc([C@@H]2c3cc4c(cc3[C@@H](O[C@@H]3O[C@@H]5CO[C@@H](C)O[C@H]5[C@H](O)[C@H]3O)[C@H]3COC(=O)[C@H]23)OCO4)cc(OC)c1O` [etoposide]: “refractory”.
Turning to `CC(O)CCC(=O)c1ccoc1` (stereo not drawn) [ipomeanol, reference compound], the “response to previous ipomeanol” value in data set [2] (same patient before topotecan) is on record as “failed to respond”.
For `CC[C@@]1(O)C(=O)OCc2c1cc1n(c2=O)Cc2cc3c(CN(C)C)c(O)ccc3nc2-1` [topotecan, (S)-9-dimethylaminomethyl-10-hydroxycamptothecin], the “Percentage of initial topotecan remaining in solution” value is 100.00% in data set [3] (D5W, 0.02 mg/ml); 100.00% in data set [3] (D5W, 0.1 mg/ml); 100.00% in data set [3] (NS, 0.02 mg/ml); 100.00% in data set [3] (NS, 0.1 mg/ml). Moreover, the “tumor size regression (CAT scan)” value in data set [1] (one patient refractory to VP-16 and cisplatin, i.v. 1.5 mg/m^2 per day, five consecutive days, repeated at twenty-one day intervals, after six treatment regimen) is recorded as “a complete regression of the disease was observed”. Further, in data set [2] (one patient, prior radiation and ipomeanol, at least one course i.v. 1.5 mg/m^2 per day, five consecutive days), the “response (measurable tumor size regression)” value is recorded as “a temporary response (measurable tumor size regression) was observed”. Moreover, the “inhibition of topoisomerase I” value in the data set with DNA topoisomerase I is reported as “specific inhibitor of DNA topoisomerase I”. Also, the water solubility entry in data set [4] is reported as “water-soluble”.

Source of the values: patent US5756512A, “Treatment of non-small cell lung carcinoma” (SmithKline Beecham Corporation, priority 1996, dated 1998).
